Measurements published in patent publication US8592374B2, “Neurotrophic peptides” (Research Foundation for Mental Hygiene, Inc., priority 2007, dated 2013).
Entries after “also recorded” stand apart in the source; their conditions may differ. Peptide text beside a SMILES is read from it. * marks the point of attachment. X1 = NC(=O)C12CC3CC(CC(N*)(C3)C1)C2

How the values were obtained:
[1] = General examination (physical state, body weight, exploratory activity, swim speed, floating); format: in vivo, mice; settings: 25 nmol/day for 35 days
Experimental: All in vivo studies for characterization of compounds (stereology and behavioral analysis) were performed on 8-10-month-old female retired breeders of C57Bl6 background. Animals were acclimatized for at least 3 weeks to exclude occasional pregnant mice from the studies. Mice were group-housed (3 animals per cage) with a 12:12 hours light/dark cycle and with free access to food and water.
(§1) For the compound treatment, mice (8 animals/group) received subcutaneous implants of extended release depot pellets containing P21 or P22 at 25 nmol/day for 35 days of continuous dosing (Innovative Research of America, USA). For the control group (8 animals), pellets consisted of the carrier polymer only. Mice were anesthetized with 2.5% Avertin (0.38 ml for a 25 g animal). Under sterile conditions, pellets were implanted subcutaneously along the anterolateral aspect of the right shoulder with a precision trochar (Innovative Research of America). After recovery of anesthesia, animals were transferred to the animal colony. No complications associated with the implantation and treatment were observed. All procedures on animals were conducted in accordance with approved protocols from our Institutional Animal Welfare Committee.
The physical state and condition of animals were carefully monitored throughout the treatment by evaluating grooming, physical state and clasping reflex. Body weight was also recorded.
The test used was an adaptation of the procedure previously described by Sargolini and collaborators (Sargolini, F., et al. Behav Brain Res 138 (2003):153-63). The testing apparatus was a classic open field (i.e. a PVC square arena, 50×50 cm, with walls 40 cm high). The open field was placed in a part of the room separated from the experimentator with a black opaque curtain. The open field was surmounted by a video camera connected to a computer. Three objects were employed in this task. The general procedure consisted of three different phases: a familiarization phase (1 session of 20 min), a sample phase, and a test phase. On the first days, mice were individually submitted to the familiarization session during which they were introduced in the empty arena in order to become familiar with the apparatus. This familiarization session allowed to record a baseline level of locomotor activity (measuring the distance covered in the open field) and of anxiety (measuring the time the animals spent in the centre of the arena during the first five minutes). On the second day each mouse was first submitted to the sample phase (session 1, ten minutes) for which two identical objects were placed in a symmetric position from the centre of the arena. After a 15 minute delay during which the mouse returned to its home cage, it was reintroduced in the arena to perform the test phase (session 2, 10 min). The mouse was then exposed to two objects: a familiar object (previously presented during the sample phase) and a new object, placed at the same location as during the sample phase. Data collection was performed using a video tracking system (Smart version 2.0.14 software, Pan Lab/San Diego Instruments). Object discrimination was calculated as follows: OD=(time spent close to new object)/(time spent close to new object)+(time spent close to old object)×100

[2] = system: normal adult mice; experiment: One-trial object recognition test; format: in vivo; settings: 25 nmol/day
Experimental: as §1
In the one-trial object recognition task, animals are exposed to two different objects which they have to identify as novel or familiar based on the memory of an earlier experience with one of the two objects they encountered in the same open field. The familiar object is explored shorter than the novel encountered one because the representation of the former is still available in memory. The one-trial object recognition task tests some aspects of episodic memory but is limited to memory of an object (what), the location of an object (where), and the context in which it was encountered (which). However, the temporal dimension of the episode remains inaccessible to the experimentator, and because of this reason this task in animals is considered a test of short term memory.
The test used was an adaptation of the procedure previously described by Sargolini and collaborators (Sargolini, F., et al. Behav Brain Res 138 (2003):153-63). The testing apparatus was a classic open field (i.e. a PVC square arena, 50×50 cm, with walls 40 cm high). […] Object discrimination was calculated as follows: OD=(time spent close to new object)/(time spent close to new object)+(time spent close to old object)×100

[3] = system: normal adult mice; experiment: Spatial reference memory task in the water maze; format: in vivo
Experimental: as §1
Spatial reference learning and memory were evaluated in the water maze using a procedure adapted from that previously described by Morris et al. (Morris, R. G., et al. Nature 297 (1982): 681-3). The test required that mice used a spatial navigational strategy based on a spatial representation of the environment to find a fixed submerged escape platform. The procedure was performed in a 180 cm diameter circular tank. The pool was filled with water (21±1° C.) made opaque by adding white non-toxic paint. Acquisition started with the escape platform (15 cm diameter submerged 1 cm below water surface) in the Northwest quadrant and each animal was given 90 s to find the platform. […] At the end of each trial, the mouse was left on the platform for 20 seconds, then dried and returned to its home cage until the next trial. Five such acquisition trials were given on each day for four consecutive days. A test for retention, or probe trial (PT), was given 24 hours later. During the probe trial the mouse was allowed to swim in the tank without the escape platform for 60 seconds. This was followed by second and third probe trials 15 and 30 days after the first probe trial.
The measures of learning were the time and distance covered to reach the escape platform. For the probe trial, the tank was divided into four imaginary quadrants and a small zone where the escape platform had been. The measure of retention was calculated as the ratio of time spent or distance covered in target quadrant over that in the three other quadrants.
Mouse behavior in the water maze was monitored by a Samsung Digital Camera (SDC 4304) mounted to the ceiling and tracked and timed by a SMART (Pan Lab/San Diego Instruments) version 2.0.14 software.

## CC(=O)N[C@@H](CC(=O)O)C(=O)NCC(=O)NCC(=O)N[C@@H](CC(C)C)C(=O)NC12CC3CC(C1)CC(C(N)=O)(C3)C2 [Peptide P21, Ac-DGGL^AG-NH2] (Ac-DGGL-X1)
[1]; open field
  exploratory behavior / exploratory activity: no alteration; also recorded: did not induce any effect
[1]; subcutaneous pellets
  body weight: no alteration; also recorded: did not induce any effect
  general physical state: no alteration
[2]; compared to other groups
  percentage of discrimination (object discrimination): significantly increased; also recorded: significantly improved the ability to discriminate a new object
[2]; test phase after 15 minute delay
  time exploring the new object versus the familiar object: clearly spent more time exploring the new object
[3]; 15 and 30 days after the end of the treatment
  time in the target quadrant, probe trials PT2 and PT3: beneficial effect disappeared; also recorded: showed no effect
[3]; 24 hours after last day of training
  time in the target quadrant, first probe trial: focus significantly more on the target quadrant; also recorded: improved performance in the first probe trial
[3]; training day 2 to 4, compared to control group
  escape latencies to reach the submerged platform (learning): significantly reduced; also recorded: increased performance in the learning of spatial memory task
